Results as given in US12252477B2, “Applications of known and novel cannabinoids” (Bessor Pharma, LLC, priority 2018, dated 2025).

Molecular target: T1, TRPV1 channels (Homo sapiens, UniProt Q8NER1)
T1 construct: expressed in transfected cells; host or cells: HEK TRex (HEK 293 T-REx) cells stably carrying a tetracycline-inducible TRPV1 transgene
Experiment: Calcium assay (Fluo-4) in HEK-TRPV1 cells, dose response comparison
Format: cell-based
Settings: Fluo-4 loaded, 1 mM external calcium chloride, 0-20 seconds baseline, compound added at 20 seconds, FIGS. 1A-1D
Protocol: Molecular Pharmacology, 2016, volume 90, pages 300-308) HEK 293 cells with TRPV1 channels have been used as model systems (P. Geppetti and M. Trevisani, Activation and sensitisation of the vanilloid receptor: role in gastrointestinal inflammation and function, British Journal of Pharmacology, 2004, volume 141, pages 1313-1320);
HEK TRexTRPV1 cultured in DMEM, 10% Fetal Bovine Serum, 2 mM L-glutamine, 10 microgramg/ml Blasticidin (Calbiochem, San Diego Calif.), […] Zeocin (InvivoGen, San Diego Calif.), followed by inducing indicated transgene expression using 1 microgram/ml Tetracycline for 16-24 hrs. Comparisons made to untransfected HEK cells or HEKTRexTRPV1 with or without induction.
Cells washed and incubated with 0.2 micromolar Fluo-4 [54] for 30 minutes at 37° C. in a standard modified Ringer's solution of the following composition (in mM): NaCl 145, KCl 2.8, CsCl 10, CaCl2 10, MgCl2 2, glucose 10, Hepes. NaOH 10, pH 7.4, 330 mOsm. Cells transferred to 96-well plates at 50,000 cells/well and stimulated as indicated. Calcium signals acquired using a Flexstation 3 (Molecular Devices, Sunnydale, USA). Data are analyzed according to the methods in 1. Diaz-Franulic, J. Caceres-Molina, R. V. Sepulveda, F. Gonzalez-Nilo, R. Latorre, Structure-Driven Pharmacology of Transient Receptor Potential Channel Vanilloid 1, Molecular Pharmacology, 2016, volume 90, pages 300-8. […]

T1 sequence (Q8NER1 whole entry): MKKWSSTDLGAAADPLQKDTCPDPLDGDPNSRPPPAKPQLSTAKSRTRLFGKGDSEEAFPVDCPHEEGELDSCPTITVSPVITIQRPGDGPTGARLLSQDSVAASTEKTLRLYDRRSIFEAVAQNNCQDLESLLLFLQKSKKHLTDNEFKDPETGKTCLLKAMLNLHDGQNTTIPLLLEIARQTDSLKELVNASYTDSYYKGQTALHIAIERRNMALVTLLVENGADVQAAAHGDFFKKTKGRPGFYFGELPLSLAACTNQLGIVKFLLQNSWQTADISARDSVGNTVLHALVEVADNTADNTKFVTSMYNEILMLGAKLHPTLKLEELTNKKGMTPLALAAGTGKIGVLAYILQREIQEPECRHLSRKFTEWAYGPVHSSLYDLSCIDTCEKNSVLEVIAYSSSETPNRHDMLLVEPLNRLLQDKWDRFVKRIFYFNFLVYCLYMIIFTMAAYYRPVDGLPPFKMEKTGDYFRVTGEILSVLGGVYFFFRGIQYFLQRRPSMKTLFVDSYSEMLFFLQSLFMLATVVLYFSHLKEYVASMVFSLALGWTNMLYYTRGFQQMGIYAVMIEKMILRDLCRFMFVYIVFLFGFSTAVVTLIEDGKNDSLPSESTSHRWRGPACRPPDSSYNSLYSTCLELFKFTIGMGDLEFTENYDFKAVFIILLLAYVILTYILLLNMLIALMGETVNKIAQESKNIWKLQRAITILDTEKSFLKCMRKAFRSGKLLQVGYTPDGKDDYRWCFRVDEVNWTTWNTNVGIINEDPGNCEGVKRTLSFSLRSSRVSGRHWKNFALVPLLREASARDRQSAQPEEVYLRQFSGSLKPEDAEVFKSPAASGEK

With `C=C(C)[C@@H]1CCC(C)=C[C@H]1c1c(O)cc(CCCCC)cc1O` [cannabidiol (11, CBD), Cannabidiol] the ““biological finger print” and dose response on TRPV 1 channels (calcium signal), synthesized versus reference standard cannabidiol” value was “same “biological finger print” and dose response”.
